Source: patent US7375124B2, “Use of α-phenylthiocarboxylic and α-phenyloxycarboxylic acids with serum-glucose-lowering and serum-lipid-lowering activity” (Sigma-Tau Industrie Farmaceutiche Riunite S.p.A., priority 2002, dated 2008)

Target: T1, PPARγ (Mus musculus, UniProt P37238)
T1 construct: expressed in transfected cells; host or cells: NIH-3T3 (mouse embryonal fibroblasts)
T1 sequence (P37238 1-475 isoform P37238-2): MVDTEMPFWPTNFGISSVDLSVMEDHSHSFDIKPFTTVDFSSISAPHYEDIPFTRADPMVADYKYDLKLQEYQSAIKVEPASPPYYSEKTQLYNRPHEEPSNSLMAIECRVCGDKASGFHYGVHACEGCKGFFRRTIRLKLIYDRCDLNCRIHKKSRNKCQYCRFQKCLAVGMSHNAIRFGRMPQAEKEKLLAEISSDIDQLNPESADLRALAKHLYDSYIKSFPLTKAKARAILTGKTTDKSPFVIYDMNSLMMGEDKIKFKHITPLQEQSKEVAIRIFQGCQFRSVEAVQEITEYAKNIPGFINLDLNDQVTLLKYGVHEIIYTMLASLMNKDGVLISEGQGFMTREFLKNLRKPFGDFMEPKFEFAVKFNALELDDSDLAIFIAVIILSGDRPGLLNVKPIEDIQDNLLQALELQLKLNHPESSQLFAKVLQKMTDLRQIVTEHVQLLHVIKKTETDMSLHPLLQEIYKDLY
Assay: Transactivation assay mediated by PPARγ in NIH-3T3 cells (CAT reporter)
Format: cell-based
Excerpt: A transactivation assay specific for PPARγ thus requires the simultaneous presence of the following in the preselected cell line: • a) a sufficient amount of PPARγ; • b) a sufficient amount of the 9 cis-retinoic acid receptor (RXR); • c) a chimeric plasmid containing the reporter gene controlled by a PPRE, located upstream of a viral heterologous promoter. In our case the reporter gene is chloramphenicol-acetyl transferase (CAT).
In the transactivation assay used, the preselected cells are transfected with the expression vector pSG5 Stop-mPPARg1 which allows the synthesis of the PPARγ receptor by the transfected cell. Simultaneously, a plasmid reporter (pBLCAT2-PPRE) is transfected which contains a peroxisome proliferator response element (PPRE) isolated by the gene promoter for acyl-CoA oxidase, upstream of the heterologous promoter of viral thymidine kinase (TK) fused with the reporter gene CAT. Since the endogenous cell levels of the RXR receptor are sufficiently high, it is not necessary to transfect an expression vector specific for RXR as well. […] Therefore, any increase in CAT levels will be the result of increased gene transcription dependent upon the dimerisation of PPARγ with RXR and upon the heterodimer bond formed with the peroxisome proliferator response element. Together with the expression vector and the reporter vector the cells are also transfected with the plasmid pCH110 which provides the internal control for the efficiency of transfection and the normalisation of the results
A cell line of mouse embryonal fibroblasts (NIH-3T3) was used [Hogan J. C. et al., Biochem Biophys Res Commun. 287 (2), 484-92 (2001)]. The cells were transfected with the reporter plasmid, the expression plasmid coding for the PPARγ receptor and the control vector pCH110. The cells were exposed to increasing concentrations of the study compounds and CAT activity was evaluated. Untreated cells were used as controls.
Mouse embryonal fibroblasts (NIH-3T3) were cultured according to the usual cell culture techniques, at 37° C. in a 5% v/v carbon dioxide atmosphere using as the growth medium DMEM (Dulbecco's modified Eagle's medium) modified with 3.7 g/l of sodium bicarbonate, 4 mM L-glutamine, 4.5 g/l of glucose, 1 mM sodium pyruvate and 10% v/v of calf serum, in the presence of streptomycin 100 μg/ml and penicillin 100 U/ml final.
The cells were co-transfected using the transfection reagent FuGENE6 (Roche), already described in the previous example. Twenty-four hours prior to transfection the cells were plated at a density of 8.0×10^4 cells/well in 12-well plates and maintained at 37° C. in a 5% v/v CO2 atmosphere. The culture medium, devoid of serum, was replaced 2 hours before transfection, and then the cells were treated with the transfection reagent FuGENE6, as described in the previous example. After 5 hours, the transfection medium was replaced by 1 ml of culture medium complete with serum and antibiotics in the presence or absence of the molecules to be tested at 3 different concentrations (2, 20 and 100 μM). Rosiglitazone, a known ligand of PPARγ, was used as the positive reference compound.
The cell protein extracts were prepared and the CAT activity assay was conducted exactly as described in the previous example.
As an internal control for the normalisation of the CAT activity in relation to the transfection efficiency, β-galactosidase activity coded for by the corresponding gene in the co-transfected plasmid pCH110 was used.
β-galatosidase activity was measured exactly as described in the previous example.
For the normalisation of the CAT assay results in relation to […] activity the formula described in the previous example was used.

CC(C)(Sc1cccc(OCCc2ccc(Cl)cc2)c1)C(=O)O [Example 2, 2-[3-[2-(4-chlorophenyl)ethoxy]phenylthio]-2-methylpropanoic acid]
Activation of the gene-reporter CAT as a percentage of the reference compound (rosiglitazone 2 μM = 100%) (2 μM): 28.6%
Activation of the gene-reporter CAT as a percentage of the reference compound (rosiglitazone 2 μM = 100%) (20 μM): 61.2%
Activation of the gene-reporter CAT as a percentage of the reference compound (rosiglitazone 2 μM = 100%) (100 μM): 114.3%
